# Source: US11458132B2, “Quinolin-2(1H)-one inhibitors of Late SV40 Factor” (TRUSTEES OF BOSTON UNIVERSITY, priority 2020, dated 2022)
# What was measured:
# [1] = system: RPE cells; assay: Analysis of microtubule features by immunofluorescence; format: cell-based
# Procedure: (§1) Analysis of microtubule features by immunofluorescence: Because Y-27632 diminishes FQI1-induced cell compaction (FIGS. 10C and 10D) without affecting microtubule levels (FIGS. 9A and 9B), cells were pretreated with Y-27632 in order to maintain overall cellular shape, facilitating capture of structural or positional impact of FQI1 on microtubules. In addition, only cells with cell spreading areas larger than 1000 μm^2 were considered. Cells were seeded overnight in high n-dishes, treated as indicated in the figure legends, fixed with formaldehyde as described above, blocked in 5% BSA in PBS and stained overnight at 4° C. with anti-γ-tubulin (1:500, Abcam, ab11316) and anti-α-tubulin (1:500, Fisher Scientific, 62204). Samples were then incubated in goat anti-rabbit Cy5 (1:1000, Invitrogen, A10523), goat anti-mouse Alexa Fluor 546 (1:1000, Thermo Fisher Scientific, A11003), and Phalloidin-iFluor 488 Reagent. Hoechst 33342 and mounting medium were applied, before acquiring Z stack images at 60× magnification on an Olympus Fluoview 10i microscope.
# (§2) Using ImageJ, binary Z projections of Phalloidin and Hoechst channel stacks were merged with Z projections with average intensity of the α-tubulin channels. The Phalloidin channel was used as the region of interest for measurement of “integrated density” of the total α-tubulin intensity, which was plotted into swarmplots.
# (§3) To assess distribution of visible microtubule ends, the Hoechst, γ-tubulin, and α-tubulin stacks were converted into Z projections with maximum intensity. The Hoechst and γ-tubulin Z projections were thresholded and all channels were merged. A line was generated between the γ-tubulin signal and the center of the nucleus to identify the axis of cell movement; a line perpendicular to the first line and running through the center point of the nucleus divided the cell into posterior and anterior portions. Visible microtubule ends were counted using the Cell Counter plugin, excluding unattached microtubule fragments.
# [2] = system: FH-B cells; assay: as above; format: cell-based, human
# Procedure: as §1, §2, §3
# [3] = system: RPE cells; assay: Cell spreading area and circularity by microscopy; format: cell-based
# Procedure: Cells were washed as before, treated with Phalloidin-iFluor 488 Reagent (abcam, ab176753) for 1 hour in 1-5% BSA in PBS, followed by Hoechst 33342 (Thermo Fisher Scientific, H3570) for 5 minutes. Mounting medium (Fisher Scientific, P10144) and cover slips were applied onto dried cells. Individually discernible cells were imaged on an Olympus Fluoview 10i. Using ImageJ, the phalloidin channel was thresholded and area and circularity values were measured and integrated into swarmplots using Python's seaborn library.
# [4] = system: RPE cells; assay: Cell motility tracking; format: cell-based; conditions: thymidine block, 4 μM FQI1; not statistically significant
# Procedure: (§4) Cell motility tracking: After overnight seeding in high μ-dishes, cells were synchronized by incubating in 2 mM thymidine for 18-20 hours. Thereafter, cells were treated with 4 μM FQI1 or vehicle (0.01% DMSO) for 1 hour, followed by a 10-min incubation in NucSpot® Live 650 dye (Biotium, 40082) following the manufacturer's instructions. Subsequently, cells were imaged every 2 minutes for 2 hours in an environmental chamber of a Nikon C2 Si microscope at 37° C. and 5% CO2 at 20× magnification. Cells that underwent mitosis during the 2-hour period were excluded from the analysis. Using ImageJ, individual nuclei were monitored using the Manual Tracking tool and the distances between starting and end points were integrated into swarmplots using Python's seaborn library.
# [5] = system: FH-B cells; assay: Cell motility tracking; format: cell-based, human; conditions: thymidine block, 4 μM FQI1
# Procedure: as §4
# [6] = system: Huh7 cells; assay: Growth inhibition curves in Huh7 cells; format: cell-based; conditions: Homo sapiens, Huh-7
# [7] = system: Wnt signaling in HCT-116 cells; assay: Wnt signaling assay (β-catenin-responsive luciferase reporter); format: cell-based; conditions: overnight
# Procedure: Wnt signaling assay: The CRC cells stably expressing β-catenin-responsive promoter tethered to a luciferase reporter (pBARLS) or a mutant construct (pfuBARLS), as described previously, were seeded in 96-well plates. After 48 h of transfection, luciferase assays was performed using the Dual-Luciferase Kit (Promega) and normalized using protein content determined by the Bradford assay (Bio-Rad) as described previously^26-28.
# [8] = system: colorectal cancer tumor; assay: Colorectal cancer tumor size and tumor tissue, FIGS. 22-24; format: in vivo, mouse; conditions: 15 mg/kg treatment compared with the other concentration
# [9] = Plasma protein binding (PPB), human; format: in vitro ADME
# [10] = Plasma protein binding (PPB), mouse; format: in vitro ADME
GI50 [6] [nM],fraction unbound [9],fraction unbound [10],Compound,front-rear pattern of visible microtubule ends ([1]; 4 μM FQI1),"overall α-tubulin intensity ([1]; 4 μM FQI1, 10 minutes, Y-27632 pretreated)","increase in the number of individually discernible microtubule ends ([1]; 4 μM FQI1, 10 minutes, vs vehicle) [fold]",anterior-posterior patterning of visible microtubule ends ([2]; 4 μM FQI1),"overall α-tubulin intensity ([2]; 4 μM FQI1, 30 minutes, Y-27632 pretreated)","increase in the number of individually discernible microtubule ends ([2]; 4 μM FQI1, 30 minutes, vs vehicle) [fold]","cell spreading area ([3]; 4 μM FQI1, 1 hour)","circularity ([3]; 4 μM FQI1 or 1 μM nocodazole, 1 hour)",cell displacement over a 2-hour period [4],cell displacement over a 2-hour period [5],Wnt activity at baseline ([7]; 0.1 μM up to 20 μM),concentrations that suppressed Wnt activity induced by lithium chloride [7] [µM],effectiveness on colorectal cancer tumor size versus time [8]
,,,"CCOc1ccccc1C1CC(=O)Nc2cc3c(cc21)OCO3 (stereo not shown) [FQI1, 8-(2-ethoxyphenyl)-7,8-dihydro-[1,3]dioxolo[4,5-g]quinolin-6(5H)-one]",shifted to a more anterior distribution,significant decrease in overall α-tubulin intensity,2.5,largely unaffected,significant decrease in overall α-tubulin intensity,2.7,did not respond to FQI1 with significant change in cell spreading area,significantly more circular in shape,clear trend towards motility being reduced,significantly smaller range of motion,,,
22.2,0.1,0.07,"CCOc1cc(N(C)C)ccc1-c1cc(=O)[nH]c2cc3c(cc12)OCO3 [FQI2-34, 8-(4-(dimethylamino)-2-ethoxyphenyl)-[1,3]dioxolo[4,5-g]quinolin-6(5H)-one]",,,,,,,,,,,inhibited Wnt activity in a monotonically decreasing manner,≥ 0.1,not as effective
